Reference: patent US20170119907A1, “Targeted Therapeutics” (MEDIVATION TECHNOLOGIES, INC., priority 2014, published 2017)

How the values were obtained:
[1] = tested on: Raji cells; test: Binding to and staining of Raji cells (Example B1b); format: cell-based; conditions: photomicrographs; for binding to Raji cells: FIG. 2B, Example B1b; for binding to and staining of Raji cells: FIG. 4B
[2] = tested on: rabbit dorsal femoral condyle explants; test: Binding to and staining of rabbit dorsal femoral condyle explants; conditions: photomicrographs, FIGS. 5A-B
[3] = tested on: human MSCs; test: Adherence of human MSCs to rabbit dorsal femoral condyle explants; format: cell-based; conditions: photomicrographs, FIG. 6A
[4] = tested on: Raji cells; test: Adherence of Raji cells to rabbit dorsal femoral condyle explants; format: cell-based; conditions: photomicrographs, FIG. 6B
[5] = tested on: Raji cells; test: Binding to Raji cells (fluorescence, Gel Logic system); format: cell-based; conditions: 10 μM in PBS; 1, 5, 15 or 30 minutes; 530 nm/600 nm; FIG. 2B
Method: 10^6 Raji cells were incubated with 10 μM Compound 4 or 10 μM Compound 20 in PBS or with PBS alone for 1, 5, 15 or 30 minutes. Cells were washed once in PBS and then the fluorescence of Compound 4 or Compound 20 was analyzed in a Gel Logic system with 530 nm/600 nm excitation/emission settings.

[6] = tested on: Raji cells; test: Binding to Raji cells (visual inspection of staining); format: cell-based; conditions: 10 μM in PBS, 30 min; FIG. 4B
Method: Raji cells were incubated in PBS without Compounds 4 or 20 or with 10 μM Compound 4 or 10 μM Compound 20 in PBS for 30 min and then washed twice with 1 mL PBS. Samples were visually inspected to determine staining

[7] = tested on: human MSCs / rabbit dorsal femoral condyle explants; test: Adherence of calcein-labeled human MSCs to rabbit dorsal femoral condyle explants; format: cell-based; conditions: MSCs incubated with compound (Compound 4: 5 μM or 10 μM), 30 min or 10 min; 475/535 nm; FIG. 6A
Method: Human MSCs were labeled with calcein for 30 min, washed with PBS, and incubated with Compound 4 (5 μM or 10 μM) or with PBS for 30 min. Rabbit dorsal femoral condyle explants were then incubated for 30 min with (1) the PBS-incubated, calcein-labeled MSCs, (2) the calcein-labeled MSCs incubated with 5 μM Compound 4, or (3) the calcein-labeled MSCs incubated with 10 μM Compound 4. Explants were washed twice with excess PBS, and the 475/535 nm filter set on the Molecular Imaging Gel Logic system was used to detect the binding of MSCs to the explants by detecting the calcein. In another experiment, the procedure was repeated with two batches of Compound 4, and with Compound 20, with an incubation time of 10 min instead of 30 min.

[8] = tested on: Raji cells / rabbit dorsal femoral condyle explants; test: Adherence of calcein-labeled Raji cells to rabbit dorsal femoral condyle explants; format: cell-based; conditions: cells incubated with 10 μM compound in PBS, 30 min; 475/535 nm; FIG. 6B
Method: Raji cells were labeled with calcein for 30 min, washed with PBS, and incubated with Compound 4 or Compound 20 (10 μM in PBS) or with PBS for 30 min. Cells were washed in PBS. Rabbit dorsal femoral condyle explants were then incubated for 30 min with (1) the PBS-incubated, calcein-labeled Raji cells or (2) the calcein-labeled Raji cells that had been incubated with 10 μM Compound 4 or Compound 20. Explants were washed twice with excess PBS, and the 475/535 nm filter set on the Molecular Imaging Gel Logic system was used to detect the binding of […] to the explants by detecting the calcein.

[9] = tested on: hMSCs; test: Differentiation of human MSCs to chondrocytes in pellet culture (aggrecan stain); format: cell-based; conditions: for ECM area (Aggrecan stain): 10 μM, 21 days, Differentiation Medium +, aggrecan ratio relative to cell number; for Differentiation of hMSCs to chondrocytes (in words): compound and differentiation medium, with or without priming, relative to control without differentiation medium
Method: hMSCs (Lonza, Cat No PT-2501) were cultured in complete mesenchymal stem cell culture medium (Lonza, Cat No PT-3238). For differentiation experiments, complete mesenchymal stem cell culture medium was removed, and hMSCs were either incubated for 30 min in chondrocyte differentiation medium containing TGFβ (R&D Systems, Cat No CCM005 and CCM006) (primed condition) or maintained in complete mesenchymal stem cell culture medium for 30 min.
hMSCs were collected, washed in PBS, and incubated in 500 μL of 10 μM Compound 4 or 20 in PBS for 20 min. Cells were washed in PBS and counted. 5×10^5 cells were placed in a 15 mL tube. The cells were centrifuged at 500 g for 7 min, and either 500 μL of maintenance medium (Lonza, Cat No PT-3238) or chondrocyte differentiation medium was added gently. The medium was changed every 2 to 3 days for three weeks, maintaining the 500 μL volume.
After three weeks, the medium was removed, and cell pellets were fixed in 500 μL of a 4% paraformaldehyde (PFA) in PBS solution for 20 min at room temperature. The solution was removed, and 500 μL of a 4% PFA, 15% sucrose in PBS was added, and the mixture was left overnight. The solution was removed, and 500 μL of a 4% PFA, 30% sucrose in PBS was added, then the mixture was left overnight or until the pellet was in the bottom of the tube. The pellet culture was frozen in TISSUE-TEK® O.C.T. compound (Cat No 4583), and 5 μm cuts were made. The slices were fixed on a positive charged slide (Cell Path, Cat No MDB-0102-54A). A hydrophobic pen was used to draw a line around the cuts on the slide.
100-300 μL of blocking solution (1% BSA, 0.3% TRITON® X-100 in PBS) was added on top of the slices which were left for 1 h at RT. The blocking solution was extracted with a micropipette. Primary antibody (goat anti-aggrecan G1-IgD-G2 domain, R&D systems, Cat No AF1220) was diluted 1:20 in blocking solution, and 100-200 μL of this solution was added on top of the slices. The slides were left at 4° C. overnight in a humidified box. The primary antibody solutions were removed, and the slices were washed 3 times with 1% BSA in PBS for 5 min. The lines were redrawn around the slices with the hydrophobic pen. From the incubation with the secondary antibody and on, the samples were kept in the dark to avoid degrading the fluorophore.
The secondary antibodies were diluted 1:100 in blocking solution. 100-200 μL of the secondary antibody solution (donkey anti-goat IgG Alexa fluor 488, Invitrogen, Cat No A11055) was added to the slices. The slices were incubated for 1 h at RT. The slices were washed 3 times with 1% BSA in PBS for 5 min. The lines were redrawn around the slices with the hydrophobic pen.
Slices were stained with 100-200 μL of a 1:2000 dilution of DAPI in PBS for 5 min at RT. The DAPI was removed, and the slices were washed 3 times with PBS for 5 min, then washed a 4th time with distilled water for another 5 min. The slides were left to dry. 30 μL of Fluorescent Mounting Medium was added, and then the slices were covered with a coverslip.

SMILES	binding to Raji cells [1]	binding to and staining of Raji cells [1]	binding to and staining of rabbit dorsal femoral condyle explants [2]	adherence of human MSCs to rabbit dorsal femoral condyle explants [3]	adherence of Raji cells to rabbit dorsal femoral condyle explants [4]	Binding to Raji cells (fluorescence) [5]	Binding to Raji cells (visual staining) [6]	Adherence of calcein-labeled human MSCs to explants [7]	Adherence of calcein-labeled Raji cells to explants [8]	ECM area (Aggrecan stain) ([9]; Priming +)	ECM area (Aggrecan stain) ([9]; Priming −)	Differentiation of hMSCs to chondrocytes (in words) [9]
Cc1cc2nc3cc(C)c(NCCCCCCCCNc4cc5c(cc4C)nc4cc(C)c(N)cc4[n+]5-c4ccccc4)cc3[n+](-c3ccccc3)c2cc1N.[Cl-].[Cl-] [Compound 4, 7,7′-(octane-1,8-diylbis(azanediyl))bis(3-amino-2,8-dimethyl-5-phenylphenazin-5-ium) chloride]	binding	bind to and stain	bind to and stain	promote adherence	promote adherence	bind to Raji cells	bind to Raji cells	promote adherence	promoted adherence	1.41	0.74	induced high levels of differentiation
Cc1cc2nc3cc(C)c(NCCCCCCNC(=O)c4ccc(-c5ccc(C(=O)NCCCCCCNc6cc7c(cc6C)nc6cc(C)c(N)cc6[n+]7-c6ccccc6)cc5)cc4)cc3[n+](-c3ccccc3)c2cc1N.[Cl-].[Cl-] [Compound 20, (3-amino-7-{[6-({4-[4-({6-[(7-amino-5-chloranuide-2,8-dimethyl-5-phenyl-5λ^6,10-phenazin-5-ylium-3-yl)amino]hexyl}carbamoyl)phenyl]phenyl}formamido)hexyl]amino}-2,8-dimethyl-5-phenyl-5λ^6,10-phenazin-5-ylium-5-e)chloranuide]	binding	bind to and stain	bind to and stain	promote adherence	promote adherence	bind to Raji cells	bind to Raji cells	promote adherence	promoted adherence	0.97	0.74	induced high levels of differentiation
